This passage reports AC50 results from ChEMBL document CHEMBL5291721, “A preclinical secondary pharmacology resource illuminates target-adverse drug reaction associations of marketed drugs” (Nat Commun, 2023).

Assay [1] has as its target T1, Adenosine receptor A3 (Homo sapiens, UniProt P0DMS8).
T1 sequence (P0DMS8 whole entry): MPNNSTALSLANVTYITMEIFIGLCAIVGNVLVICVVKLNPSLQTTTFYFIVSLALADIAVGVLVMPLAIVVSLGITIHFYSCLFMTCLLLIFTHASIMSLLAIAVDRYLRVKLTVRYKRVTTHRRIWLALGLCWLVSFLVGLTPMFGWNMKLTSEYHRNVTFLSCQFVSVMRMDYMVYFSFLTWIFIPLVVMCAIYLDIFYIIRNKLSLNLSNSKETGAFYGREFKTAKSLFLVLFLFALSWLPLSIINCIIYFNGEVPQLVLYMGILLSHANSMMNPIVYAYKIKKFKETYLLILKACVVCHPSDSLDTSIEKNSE

The target in assay [2] is D(3) dopamine receptor (Homo sapiens, UniProt P35462).
Chain of D(3) dopamine receptor (P35462 whole entry): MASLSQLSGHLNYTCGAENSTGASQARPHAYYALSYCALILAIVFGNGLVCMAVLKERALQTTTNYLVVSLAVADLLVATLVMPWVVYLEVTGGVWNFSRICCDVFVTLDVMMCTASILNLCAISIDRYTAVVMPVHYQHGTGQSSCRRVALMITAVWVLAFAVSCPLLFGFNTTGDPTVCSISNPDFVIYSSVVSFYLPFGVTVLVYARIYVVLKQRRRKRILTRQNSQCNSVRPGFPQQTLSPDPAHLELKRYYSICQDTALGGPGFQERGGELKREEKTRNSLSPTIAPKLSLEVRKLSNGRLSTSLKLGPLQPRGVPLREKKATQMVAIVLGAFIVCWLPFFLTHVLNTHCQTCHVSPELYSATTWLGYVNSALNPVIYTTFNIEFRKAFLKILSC
Assay [3] addresses Voltage-gated inwardly rectifying potassium channel KCNH2 (Homo sapiens, UniProt Q12809). Type of assay: functional. Conditions: read-out: AC50.
The target in assay [4] is Acetylcholinesterase (Homo sapiens, UniProt P22303). Type of assay: functional.
Chain of Acetylcholinesterase (P22303 whole entry): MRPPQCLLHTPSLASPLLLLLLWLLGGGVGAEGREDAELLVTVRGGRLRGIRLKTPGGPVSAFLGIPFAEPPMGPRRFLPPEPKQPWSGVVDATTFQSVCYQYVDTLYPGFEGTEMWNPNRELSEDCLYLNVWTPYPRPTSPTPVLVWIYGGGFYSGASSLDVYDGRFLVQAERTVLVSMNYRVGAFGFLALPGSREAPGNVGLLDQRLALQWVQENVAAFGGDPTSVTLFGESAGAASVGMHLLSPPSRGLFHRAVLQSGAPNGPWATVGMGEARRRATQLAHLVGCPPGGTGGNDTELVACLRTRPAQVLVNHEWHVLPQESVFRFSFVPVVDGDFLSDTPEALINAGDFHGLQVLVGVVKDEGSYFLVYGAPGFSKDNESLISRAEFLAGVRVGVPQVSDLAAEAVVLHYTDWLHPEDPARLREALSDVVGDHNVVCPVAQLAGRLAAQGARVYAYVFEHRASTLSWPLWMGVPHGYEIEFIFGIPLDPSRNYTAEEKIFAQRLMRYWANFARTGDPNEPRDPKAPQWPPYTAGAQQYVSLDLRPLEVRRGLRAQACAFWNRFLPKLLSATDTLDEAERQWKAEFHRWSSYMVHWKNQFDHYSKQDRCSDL
In assay [5] the target is T2, Thromboxane A2 receptor (Homo sapiens, UniProt P21731).
T2 sequence (P21731 whole entry): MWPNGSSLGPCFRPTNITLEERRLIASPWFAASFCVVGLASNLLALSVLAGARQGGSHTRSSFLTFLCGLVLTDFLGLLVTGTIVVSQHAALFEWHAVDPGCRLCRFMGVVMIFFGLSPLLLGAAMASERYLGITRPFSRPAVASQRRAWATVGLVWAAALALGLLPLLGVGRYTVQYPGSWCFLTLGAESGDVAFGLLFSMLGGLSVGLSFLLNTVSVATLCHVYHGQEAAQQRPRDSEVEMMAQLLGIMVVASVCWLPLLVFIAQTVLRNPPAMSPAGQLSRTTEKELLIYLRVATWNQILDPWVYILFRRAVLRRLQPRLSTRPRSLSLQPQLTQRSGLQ

The structures appear in SMILES notation. A value given as a limit tells only on which side of the number the result lay.
Note: assay procedure not described here.

Chain of Voltage-gated inwardly rectifying potassium channel KCNH2 (Q12809 whole entry): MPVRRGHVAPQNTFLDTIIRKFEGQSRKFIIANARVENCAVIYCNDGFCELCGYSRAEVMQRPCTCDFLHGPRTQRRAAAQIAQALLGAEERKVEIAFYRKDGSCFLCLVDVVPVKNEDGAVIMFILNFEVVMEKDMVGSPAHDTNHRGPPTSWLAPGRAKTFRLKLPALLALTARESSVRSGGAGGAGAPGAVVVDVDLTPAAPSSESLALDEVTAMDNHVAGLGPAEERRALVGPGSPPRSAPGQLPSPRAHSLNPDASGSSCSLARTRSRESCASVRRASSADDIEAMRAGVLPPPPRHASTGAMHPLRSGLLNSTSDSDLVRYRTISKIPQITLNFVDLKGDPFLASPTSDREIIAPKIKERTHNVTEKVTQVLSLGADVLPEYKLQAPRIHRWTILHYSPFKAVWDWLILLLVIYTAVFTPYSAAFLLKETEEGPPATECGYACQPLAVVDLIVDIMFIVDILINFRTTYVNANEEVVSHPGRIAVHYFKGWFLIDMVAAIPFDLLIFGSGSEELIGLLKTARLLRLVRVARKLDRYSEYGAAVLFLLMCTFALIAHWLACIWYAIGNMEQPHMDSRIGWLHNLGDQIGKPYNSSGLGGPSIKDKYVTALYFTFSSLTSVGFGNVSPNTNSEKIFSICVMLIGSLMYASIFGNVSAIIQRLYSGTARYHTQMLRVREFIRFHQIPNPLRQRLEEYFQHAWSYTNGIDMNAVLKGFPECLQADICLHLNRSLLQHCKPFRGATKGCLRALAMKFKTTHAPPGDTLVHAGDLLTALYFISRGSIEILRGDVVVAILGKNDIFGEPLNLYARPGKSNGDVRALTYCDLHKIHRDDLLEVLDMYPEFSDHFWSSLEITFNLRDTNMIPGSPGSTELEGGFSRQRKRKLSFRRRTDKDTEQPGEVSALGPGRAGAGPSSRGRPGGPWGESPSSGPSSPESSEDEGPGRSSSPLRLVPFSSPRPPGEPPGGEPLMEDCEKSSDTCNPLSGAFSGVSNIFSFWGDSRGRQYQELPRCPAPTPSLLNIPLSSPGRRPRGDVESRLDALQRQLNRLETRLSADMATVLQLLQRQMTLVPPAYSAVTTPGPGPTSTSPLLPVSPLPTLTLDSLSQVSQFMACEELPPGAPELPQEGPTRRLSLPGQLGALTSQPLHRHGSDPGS

Consider `CNC(=C[N+](=O)[O-])NCCSCc1ccc(CN(C)C)o1` [RANITIDINE], for which the concentration at half-maximal activity (AC50) (commonly the midpoint of the concentration-response curve, whichever way the signal moves) in assay [1] was > 30 µM.
Turning to `CN(C)CC/C=C1/c2ccccc2Sc2ccc(Cl)cc21` [CHLORPROTHIXENE], in assay [2], half-maximal activity (AC50) was put at 0.003 µM.
Take `COc1ccc2c3c1O[C@H]1C[C@@H](O)C=C[C@@]31CCN(C)C2` [GALANTAMINE]: the concentration at half-maximal activity (AC50) in assay [3] was > 30 µM.
As for `O=C(O)CN(CCN(CC(=O)O)CC(=O)O)CC(=O)O` [EDETIC ACID], the AC50 in assay [4] is > 30 µM.
Take `CC[N+](CC)(CC)CCOc1cccc(OCC[N+](CC)(CC)CC)c1OCC[N+](CC)(CC)CC` [GALLAMINE]: the AC50 in assay [4] was > 30 µM; in assay [3], 8.99 µM.
On to `CCCCC[C@H](O)/C=C/[C@H]1[C@H](O)CC(=O)[C@@H]1CCCCCCC(=O)O` [ALPROSTADIL], for which, in assay [5], the AC50 was > 10 µM.
